Test results published in patent US20240270809A1, “ORAL GLP RECEPTOR AGONISTS” (priority 2020, published 2024).
Positions of bridges follow the written chain, without caps; N, C: chain ends. Non-standard residues stand in square brackets, D forms with d. Residues, ends and D or L forms follow the SMILES beside them. *: point of attachment. Malonyl(2,2-Me2,histaminyl) = CC(C)(C(=O)NCCc1cnc[nH]1)C(=O)*; Ala(1H-tetrazol-5-yl) = N[C@@H](Cc1nnn[nH]1)C(=O)O; Nle = CCCC[C@H](N)C(=O)O; Aib = CC(C)(N)C(=O)O

Experiments:
mouse GLP2 receptor = target: T1, mouse GLP2 receptor (Mus musculus, UniProt Q5IXF8); test: cAMP accumulation assay, functional agonism of mouse GLP2 receptor; format: cell-based; details: HEK cells transiently transfected with mouse GLP2 receptor, HTRF cAMP; for Emax: HEK293, read-out: Mouse GLP-2R agonist cAMP Emax; for EC50: read-out: Mouse GLP-2R agonist cAMP pEC50 (converted)
T1 construct: expressed in transfected cells; host or cells: HEK cells, transient transfection with GeneJuice
T1 sequence (Q5IXF8 1-512): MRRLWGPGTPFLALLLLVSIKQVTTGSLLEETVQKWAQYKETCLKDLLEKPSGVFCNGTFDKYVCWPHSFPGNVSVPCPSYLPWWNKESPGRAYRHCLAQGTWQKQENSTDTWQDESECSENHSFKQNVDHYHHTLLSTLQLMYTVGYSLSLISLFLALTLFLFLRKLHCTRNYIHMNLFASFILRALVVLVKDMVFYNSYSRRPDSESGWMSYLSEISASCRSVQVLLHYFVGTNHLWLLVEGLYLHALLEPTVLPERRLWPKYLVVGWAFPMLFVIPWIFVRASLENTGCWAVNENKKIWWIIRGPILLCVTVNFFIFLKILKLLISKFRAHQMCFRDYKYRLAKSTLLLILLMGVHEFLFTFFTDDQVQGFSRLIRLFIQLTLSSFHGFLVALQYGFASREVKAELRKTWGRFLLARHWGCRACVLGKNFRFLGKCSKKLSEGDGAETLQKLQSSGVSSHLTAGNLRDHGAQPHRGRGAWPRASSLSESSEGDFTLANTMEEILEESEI
Summary of the method: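 pEC50 values come from four-parameter fits of HTRF cAMP signal, read after lysis and 1 h RT incubation. Compounds were incubated 45 min at 37 °C with previously frozen, transiently transfected HEK cells (8000/well) in HBSS containing 0.5 mM IBMX.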

human GLP1 receptor = target: T2, human GLP1 receptor (Homo sapiens, UniProt P43220); test: cAMP accumulation assay, functional agonism of human GLP1 receptor; format: cell-based; details: HEK cells infected with human GLP1 receptor BacMam virus, HTRF cAMP; for Emax: HEK293, read-out: Human GLP-1R agonist cAMP Emax; for EC50: read-out: Human GLP-1R agonist cAMP pEC50 (converted)
T2 construct: expressed in transfected cells; host or cells: HEK cells, BacMam virus transduction
Summary of the method: (§1)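 Agonist-driven cAMP production was quantified by homogeneous time-resolved fluorescence. Receptor expression in HEK cells came from a 24-hour BacMam infection, and cells were frozen ahead of the assay. Incubation lasted 45 min at 37° C in HBSS supplemented with 0.5 mM IBMX.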

mouse GLP1 receptor = target: T3, mouse GLP1 receptor (Mus musculus, UniProt O35659); test: cAMP accumulation assay, functional agonism of mouse GLP1 receptor; format: cell-based; details: HEK cells transiently transfected with mouse GLP1 receptor, HTRF cAMP; for Emax: HEK293, read-out: Mouse GLP-1R agonist cAMP Emax; for EC50: read-out: Mouse GLP-1R agonist cAMP pEC50 (converted)
T3 construct: expressed in transfected cells; host or cells: HEK cells, transient transfection with GeneJuice
T3 sequence (O35659 22-463): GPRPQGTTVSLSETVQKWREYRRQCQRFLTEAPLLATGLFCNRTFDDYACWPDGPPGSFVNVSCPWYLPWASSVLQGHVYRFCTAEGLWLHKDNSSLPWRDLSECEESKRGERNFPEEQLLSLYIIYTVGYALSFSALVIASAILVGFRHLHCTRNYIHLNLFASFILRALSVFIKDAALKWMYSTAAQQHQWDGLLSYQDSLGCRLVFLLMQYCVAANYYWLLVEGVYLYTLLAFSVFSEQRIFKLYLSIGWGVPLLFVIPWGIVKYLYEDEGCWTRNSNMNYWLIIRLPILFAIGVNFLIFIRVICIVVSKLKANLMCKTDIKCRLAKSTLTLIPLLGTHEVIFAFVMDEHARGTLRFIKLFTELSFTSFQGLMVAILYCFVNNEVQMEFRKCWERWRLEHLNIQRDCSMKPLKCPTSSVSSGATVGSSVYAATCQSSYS

human GLP2 receptor = target: T4, human GLP2 receptor (Homo sapiens, UniProt O95838); test: cAMP accumulation assay, functional agonism of human GLP2 receptor; format: cell-based; details: HEK cells infected with human GLP2 receptor BacMam virus, HTRF cAMP; for Emax: HEK293, read-out: Human GLP-2R agonist cAMP Emax; for EC50: read-out: Human GLP-2R agonist cAMP pEC50 (converted)
T4 construct: expressed in transfected cells; host or cells: HEK cells, BacMam virus transduction
T4 sequence (O95838 1-553): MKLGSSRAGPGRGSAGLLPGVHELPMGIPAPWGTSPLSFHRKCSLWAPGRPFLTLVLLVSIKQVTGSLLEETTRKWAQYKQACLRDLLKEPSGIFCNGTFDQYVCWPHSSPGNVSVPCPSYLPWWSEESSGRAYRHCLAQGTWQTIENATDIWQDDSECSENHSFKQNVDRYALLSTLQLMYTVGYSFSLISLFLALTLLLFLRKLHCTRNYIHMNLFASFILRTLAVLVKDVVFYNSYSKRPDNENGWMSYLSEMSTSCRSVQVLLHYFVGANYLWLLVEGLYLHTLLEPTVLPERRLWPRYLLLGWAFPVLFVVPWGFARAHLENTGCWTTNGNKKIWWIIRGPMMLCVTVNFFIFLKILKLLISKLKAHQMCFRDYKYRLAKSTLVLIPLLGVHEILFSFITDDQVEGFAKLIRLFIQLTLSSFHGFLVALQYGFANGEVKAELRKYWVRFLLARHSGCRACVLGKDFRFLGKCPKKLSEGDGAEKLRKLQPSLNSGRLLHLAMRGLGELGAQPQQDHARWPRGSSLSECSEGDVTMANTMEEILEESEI
Summary of the method: as §1

[1] = Stability of peptides in Fasted-State Simulated Intestinal Fluid (FaSSIF); format: in vitro ADME; details: FaSSIF with 10 mg/ml pancreatin, 37° C.; for remaining at 0.25 h: FaSSIF pH 6.5 with 10 mg/ml pancreatin, t = 15 mins

T2 sequence (P43220 24-463): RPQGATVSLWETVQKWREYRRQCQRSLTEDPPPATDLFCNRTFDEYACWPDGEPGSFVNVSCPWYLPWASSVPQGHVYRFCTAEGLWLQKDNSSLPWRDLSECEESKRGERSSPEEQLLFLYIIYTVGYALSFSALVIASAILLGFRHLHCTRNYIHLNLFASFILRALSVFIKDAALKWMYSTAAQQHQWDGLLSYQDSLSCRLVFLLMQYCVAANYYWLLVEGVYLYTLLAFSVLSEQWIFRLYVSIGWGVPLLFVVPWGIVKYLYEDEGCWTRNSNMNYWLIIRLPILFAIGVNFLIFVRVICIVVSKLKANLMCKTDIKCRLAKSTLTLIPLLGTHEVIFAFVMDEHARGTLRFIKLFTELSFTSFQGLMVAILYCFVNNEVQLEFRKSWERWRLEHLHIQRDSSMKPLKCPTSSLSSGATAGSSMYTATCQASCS

Structure (SMILES)	Emax (mouse GLP2 receptor)	EC50 (mouse GLP2 receptor)	Emax (human GLP1 receptor)	EC50 (human GLP1 receptor)	Emax (mouse GLP1 receptor)	EC50 (mouse GLP1 receptor)	Emax (human GLP2 receptor)	EC50 (human GLP2 receptor)	remaining at 0.5 h ([1]; t=30 mins, pH 6.5, 10 mg/ml pancreatin)	remaining at 0.25 h [1]
CCCC[C@@H]1NC(=O)[C@H](CCC(=O)O)NC(=O)[C@@H](NC(=O)[C@H](CO)NC(=O)[C@H](Cc2ccccc2)NC(=O)[C@H](CO)NC(=O)CNC(=O)[C@H](Cc2nn[nH]n2)NC(=O)C(C)(C)C(=O)NCCc2c[nH]cn2)CCCCNC(=O)C[C@@H](C(=O)N[C@H](C(=O)N[C@@H](CC(C)C)C(=O)N[C@@H](CC(=O)O)C(=O)N[C@H]2CC(=O)NCCCC[C@@H](C(=O)N[C@@H](CC(=O)O)C(=O)N[C@@H](Cc3ccccc3)C(=O)N[C@H](C(=O)N[C@@H](CC(N)=O)C(=O)N[C@@H](Cc3c[nH]c4ccccc34)C(=O)N[C@@H](CC(C)C)C(=O)N[C@H](C(=O)N[C@@H](CCC(N)=O)C(=O)N[C@H](C(=O)N[C@H]3CCC(=O)NCCCC[C@@H](C(N)=O)NC(=O)[C@H]([C@@H](C)O)NC(=O)[C@H]([C@@H](C)CC)NC3=O)[C@@H](C)O)[C@@H](C)CC)[C@@H](C)CC)NC(=O)[C@H](C)NC(=O)[C@H](C)NC(=O)[C@H](CCCCN)NC2=O)[C@@H](C)CC)NC(=O)[C@@H](Cc2ccccc2)NC1=O [Example 1] ({Malonyl(2,2-Me2,histaminyl)}-[Ala(1H-tetrazol-5-yl)]GSFSKE[Nle][dF]DILDDKAAKDFINWLIQTEITK-NH2; lactam 6-10, 14-18, 28-31)	97.7%	10 nM	90.1%	0.794 nM	91.5%	0.126 nM	103%	0.398 nM	5%	–
CCCC[C@H](NC(=O)[C@H](CCC(=O)O)NC(=O)[C@H](CC(=O)O)NC(=O)[C@H](CO)NC(=O)[C@H](Cc1ccccc1)NC(=O)[C@H](CO)NC(=O)CNC(=O)[C@H](CC(=O)O)NC(=O)C(C)(C)NC(=O)[C@@H](N)Cc1c[nH]cn1)C(=O)N[C@H](Cc1ccccc1)C(=O)N[C@H]1CCC(=O)NCCCC[C@@H](C(=O)N[C@@H](CCCCN)C(=O)N[C@@H](C)C(=O)N[C@@H](C)C(=O)N[C@@H](CCCCN)C(=O)N[C@@H](CC(=O)O)C(=O)N[C@@H](Cc2ccccc2)C(=O)N[C@H](C(=O)N[C@@H](CC(N)=O)C(=O)N[C@@H](Cc2c[nH]c3ccccc23)C(=O)N[C@@H](CC(C)C)C(=O)N[C@H](C(=O)N[C@@H](CCC(N)=O)C(=O)N[C@H](C(=O)N[C@@H](CCCCN)C(=O)N[C@H](C(=O)N[C@H](C(=O)N[C@@H](CC(=O)O)C(N)=O)[C@@H](C)O)[C@@H](C)CC)[C@@H](C)O)[C@@H](C)CC)[C@@H](C)CC)NC(=O)[C@H](CC(=O)O)NC(=O)[C@H](CC(C)C)NC(=O)[C@H]([C@@H](C)CC)NC1=O [Example 87] (H-H[Aib]DGSFSDE[Nle][dF]EILDKKAAKDFINWLIQTKITD-NH2; lactam 12-16 (inferred); C-terminus assumed)	99.2%	0.00631 nM	98.7%	2.51 nM	91.4%	0.631 nM	102%	0.00251 nM	–	1.7%
CCCC[C@H](NC(=O)[C@H](CCC(=O)O)NC(=O)[C@H](CC(=O)O)NC(=O)[C@H](CO)NC(=O)[C@H](Cc1ccccc1)NC(=O)[C@H](CO)NC(=O)CNC(=O)[C@H](CC(=O)O)NC(=O)C(C)(C)NC(=O)[C@@H](N)Cc1c[nH]cn1)C(=O)N[C@H](Cc1ccccc1)C(=O)N[C@H](C(=O)N[C@H](C(=O)N[C@@H](CC(C)C)C(=O)N[C@@H](CC(=O)O)C(=O)N[C@@H](CC(C)C)C(=O)N[C@@H](CCCCN)C(=O)N[C@@H](C)C(=O)N[C@@H](C)C(=O)N[C@@H](CCCCN)C(=O)N[C@@H](CC(=O)O)C(=O)N[C@@H](Cc1ccccc1)C(=O)N[C@H](C(=O)N[C@@H](CC(N)=O)C(=O)N[C@@H](Cc1c[nH]c2ccccc12)C(=O)N[C@@H](CC(C)C)C(=O)N[C@H](C(=O)N[C@@H](CCC(N)=O)C(=O)N[C@H]1CCCCNC(=O)CC[C@@H](C(N)=O)NC(=O)[C@H]([C@@H](C)O)NC(=O)[C@H]([C@@H](C)CC)NC(=O)[C@H](CCCCN)NC1=O)[C@@H](C)CC)[C@@H](C)CC)[C@@H](C)CC)[C@@H](C)O [Example 93] (H-H[Aib]DGSFSDE[Nle][dF]TILDLKAAKDFINWLIQKKITE-NH2; lactam 29-33; N-terminus and C-terminus assumed)	98.5%	0.251 nM	95.3%	3.98 nM	95.5%	2.51 nM	98.6%	0.00501 nM	–	13.5%
CCCC[C@H](NC(=O)[C@H](CCC(=O)O)NC(=O)[C@H](CC(=O)O)NC(=O)[C@H](CO)NC(=O)[C@H](Cc1ccccc1)NC(=O)[C@H](CO)NC(=O)CNC(=O)[C@H](CC(=O)O)NC(=O)C(C)(C)NC(=O)[C@@H](N)Cc1c[nH]cn1)C(=O)N[C@H](Cc1ccccc1)C(=O)N[C@H](C(=O)N[C@H](C(=O)N[C@@H](CC(C)C)C(=O)N[C@@H](CC(=O)O)C(=O)N[C@H]1CCC(=O)NCCCC[C@@H](C(=O)N[C@@H](CC(=O)O)C(=O)N[C@@H](Cc2ccccc2)C(=O)N[C@H](C(=O)N[C@@H](CC(N)=O)C(=O)N[C@@H](Cc2c[nH]c3ccccc23)C(=O)N[C@@H](CC(C)C)C(=O)N[C@H](C(=O)N[C@@H](CCC(N)=O)C(=O)N[C@H](C(=O)N[C@@H](CCCCN)C(=O)N[C@H](C(=O)N[C@H](C(=O)N[C@@H](CC(=O)O)C(N)=O)[C@@H](C)O)[C@@H](C)CC)[C@@H](C)O)[C@@H](C)CC)[C@@H](C)CC)NC(=O)[C@H](C)NC(=O)[C@H](C)NC(=O)[C@H](CCCCN)NC1=O)[C@@H](C)CC)[C@@H](C)O [Example 89] (H-H[Aib]DGSFSDE[Nle][dF]TILDEKAAKDFINWLIQTKITD-NH2; lactam 16-20 (inferred); C-terminus assumed)	98.4%	0.00631 nM	99.6%	3.16 nM	94.5%	0.794 nM	102%	0.00251 nM	–	10.5%
